From patent publication US20080125475A1 (priority 2006, published 2008) come the findings set out here.

Usually Ki stands for the equilibrium dissociation constant of an inhibitor or competing ligand from its target. Read a high Ki as weaker binding. What is called ED50 is the dose that gives a 50% effect, or the effect in half of the subjects.

One data set concerns the target T1, ORL1 receptor (Homo sapiens, UniProt P41146).
T1 construct: expressed in transfected cells; host or cells: CHO (recombinant CHO-ORL1 cells), membranes
Kind of data set: biochemical. The format is binding.

Data set [1] concerns Sprague-Dawley rats. Nature of the data set: animal or person. Format: in vivo. The following applies: Rattus norvegicus, iv, read-out: ED50 acute.
Data set [2] deals with Sprague-Dawley rats. Nature of the data set: animal or person. The format is in vivo, rat. As to conditions: iv.
The test system of the next data set is mice. As to conditions: mouse, in vivo.

Read-outs that look alike come from different tables or passages of the source. Some results are limits rather than exact numbers.

T1 sequence (P41146 whole entry): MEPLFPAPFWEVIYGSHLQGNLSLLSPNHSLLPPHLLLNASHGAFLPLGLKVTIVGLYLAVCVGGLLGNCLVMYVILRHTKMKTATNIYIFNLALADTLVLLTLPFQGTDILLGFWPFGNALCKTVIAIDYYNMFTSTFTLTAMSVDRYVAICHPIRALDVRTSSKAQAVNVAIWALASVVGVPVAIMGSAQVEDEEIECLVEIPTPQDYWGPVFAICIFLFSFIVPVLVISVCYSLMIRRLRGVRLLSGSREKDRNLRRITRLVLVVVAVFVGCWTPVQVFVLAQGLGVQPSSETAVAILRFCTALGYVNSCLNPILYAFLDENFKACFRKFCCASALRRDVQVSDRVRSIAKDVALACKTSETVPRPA

As for `CCC(=O)C(C[C@@H](C)N(C)C)(c1ccccc1)c1ccccc1` [Compound B7, L-methadone], the inhibitory constant (Ki) on ORL1 receptor was > 1000 nM. In addition, the ED50 in the data set on Sprague-Dawley rats [1] is 0.21 mg/kg; with Sprague-Dawley rats [2] (Rattus norvegicus, read-out: ED50 chronic), 0.49 mg/kg. In addition, the “Enhancement of action factor” value with Sprague-Dawley rats [2] (rat, in vivo) came out at 0.4x. Also, the naloxone-induced withdrawal jumping entry in the data set on mice is reported as “reduced in comparison with B1-B4 but is still significant”.
